Laboratory results published in patent US8318781B2, “G-protein-conjugated receptor agonist” (Japan Science and Technology Agency, priority 2007, dated 2012).
Where two headings read alike, the source gives them in different places.

What was measured:
Assay type in all cases: cell-based
[1] = target: T1, human GPR120 (hGPR120) (Homo sapiens, UniProt Q5NUL3); assay: Determination of intracellular Ca2+ concentration (FLIPR), cell line GPR120/Flp-in; settings: for [Ca^2+]/GPR120/Flp-In 10 μM (ratio vs. LA): relative fluorescence intensity vs LA at 10 μM
T1 construct: expressed in transfected cells; doxycycline-inducible expression vector
T1 sequence (Q5NUL3 1-361): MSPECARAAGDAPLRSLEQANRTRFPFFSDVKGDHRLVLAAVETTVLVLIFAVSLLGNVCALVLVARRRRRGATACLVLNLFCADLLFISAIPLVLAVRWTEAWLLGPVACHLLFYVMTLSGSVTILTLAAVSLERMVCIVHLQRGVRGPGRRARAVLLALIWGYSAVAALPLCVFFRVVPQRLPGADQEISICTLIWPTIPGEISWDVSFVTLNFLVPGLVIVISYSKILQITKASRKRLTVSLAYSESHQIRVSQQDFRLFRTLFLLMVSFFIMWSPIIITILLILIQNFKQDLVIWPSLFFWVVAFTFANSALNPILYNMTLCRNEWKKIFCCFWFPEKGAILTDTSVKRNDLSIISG
Method: (§1) (1) In this test, The cell lines TXGPR40, TXGPR120 and GPR120/Flp-in were plated onto a collagen-coated black 96-well plate in 2×10^5 cells/well. The 96-well plates containing the cells were centrifuged and treated with Doxycycline (final concentration 10 μg/mL), incubated in a CO2 incubator for 21 hours, then used for assay.
(§2) (2) The ligand used in this test includes NCP04, NCP14, NCG20, NCG21, NCG22, NCG23, NCP02, NCP03, NCP05, NCP06, NCG14, NCG17, NCG19, NCG28, NCG29, NCG30, NCG31, NCG34, NCG35, NCG37, NCG38, NCG44, NCG45, NCG46, and NCG54. Each ligand was dissolved in DMSO and adjusted to the concentration of 10 mM, then diluted with Hanks' Balanced Salt Solution (pH 7.4) containing 20 mM HEPES (referred to as FLIPR buffer hereinafter) to the final concentration of 1 to 100 μM. 1% DMSO was used as the negative control, and LA was used as the positive control.
(§3) The ligands and controls were placed in different 96-well plates from the plates for the cells.
(§4) (3) The 96-well plate containing the cells was removed from the CO2 incubator. A fluorescent dye prepared in a twofold higher concentration (Ca Assay Kit Component A diluted with FLIPR Buffer) was added in 50 μL/well, then allowed to stand in the dark at room temperature for one hour.
(§5) (4) After one hour, the 96-well plate containing the cells and the 96-well plate in which ligands and controls were prepared were set on FLIPR (Fluorometric Imaging Plate Reader) for determination.
(§6) (5) Fluorometry using FLIPR was carried out at a laser output of 1.0 W for five minutes. […] after the start of the determination, the ligand (25 μL) was added dropwise to the cell plate at a rate of 50 μL/sec. The intensity of fluorescence was automatically digitized by the application program installed in the FLIPR from the image taken by the CCD camera (with exposure time of 0.40 sec). The interval of data sampling was one second for the initial one minute after the start of operation, and six seconds for the subsequent four minutes.
(§7) (6) The maximum fluorescence intensity was obtained from the data showing the change in the fluorescence intensity over time observed in each well. The maximum fluorescence intensity was plotted against ligand concentration, and pEC50 was calculated. The ratio of the fluorescence intensity for each ligand to LA at 10 μM was calculated as the relative intensity of each ligand.

[2] = target: T1, human GPR120 (hGPR120); assay: ERK assay, screening for GPR120 ligands in cell line TXGPR120;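 for ERK/GPR120 10 μM: signals normalized between DMSO and PMA controls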; settings: for ERK activation for GPR120 (in words) / ERK/GPR120 10 μM / ERK/GPR120 100 μM: TXGPR120 cells; for ERK activation for GPR120 (in words): FIGS. 5-8; for ERK/GPR120 10 μM: ligand 10 μM; for ERK/GPR120 10 μM / ERK/GPR120 100 μM: class relative to LA; for ERK/GPR120 100 μM: ligand 100 μM
Method: (§8) This Test 1 was carried out by using the following materials and methods.
(§9) (1) In this test, the cell lines TXGPR40 and TXGPR120 were plated in 35-mm dishes in 5×10^5 cells/per dish.
(§10) Each ligand was dissolved in DMSO, diluted tenfold with the medium to make the total amount of 100 μl. DMSO was used as the negative control, and PMA (phorbol-12-myristate-13-acetate) was used as the positive control.
(§11) (3) The medium was removed from the dish of the cell to reduce the total amount of liquid to 0.9 ml.
(§12) (4) The ligand solution was added dropwise to the cell solution, and dispersed by gently shaking the dish, and allowed to react at room temperature.
(§13) (5) After 5 minutes of reaction, the medium was discarded, and the remaining medium on the dish was removed on ice using an aspirator.
(§14) (6) 150 μl of Lysis buffer (50 mM HEPES (pH 7.0), 150 mM NaCl, 10% glycerol, 1% NonidetP-40, 2 mM MgCl2, 1 mM EDTA, 100 mM NaF, 10 mM sodium phosphate, 1 mM Na3VO4, 20 mM β-glycerophosphate, and Proteinase inhibitor) were added, then the cells were collected using a cell scraper.
(§15) (1) The crude enzyme solution mixed with SDS Sample Buffer was subjected to ultrasonication with a sonifier, then incubated at 90° C. for five minutes.
(§16) (2) The mixture was vortexed and centrifuged at 15,000 rpm for five minutes at 4° C.
(§17) (3) The supernatant of the centrifuged sample was applied to two 7.5% acrylamide gel slabs placed in an electrophoresis tank filled with 1×SDS-PAGE Running Buffer (25 mM Tris, 0.2 M Glycin, and 1% SDS). Electrophoresis was carried out under a constant current of 40 mA for about 80 to 90 minutes.
(§18) (1) A PVDF membrane cut in the same size as the gel slab was immersed in methanol for about 15 seconds and then shaken in Transfer Buffer C solution (25 mM Tris, 0.02% SDS, 2% methanol and 40 mM 6-aminohexanoic acid) at room temperature to swell for 15 minutes. Filter paper for blotting was cut into a 10-cm square.
(§19) (2) On the blotting apparatus were placed sequentially two pieces of filter paper immersed in A solution (0.3 M Tris, 0.02% SDS and 2% methanol), two pieces of filter paper immersed in B solution (25 mM Tris, 0.02% SDS and 2% methanol), and the membrane thereon. The gel slab after electrophoresis, and finally two pieces of filter paper immersed in C solution was placed thereon, and the apparatus was closed.
(§20) (3) The protein was transferred to the membrane at 15 V for 30 minutes.
(§21) (1) The following procedure was all carried out at room temperature. After the protein transfer, the membrane was placed into a vial containing 1×TTBS (0.2 M Tris, 1.5 M NaCl, 0.2% Tween 20) and washed for 15 minutes.
(§22) (2) TTBS was discarded, and about 10 ml of Block Ace was added and blocked on a shaker for one hour.
(§23) (1) The primary antibodies (p44/42 MAP Kinase Antibody and Phospho-p44/42 MAP Kinase Antibody) were each diluted 1000-fold with TTBS.
(§24) (2) After blocking, the Block Ace solution was removed, the solution of the primary antibody was added and allowed to react on the shaker for two hours.
(§25) (1) The secondary antibody (Anti-rabbit Ig, Horseradish Peroxidase linked F(ab′)2 fragments) was diluted 5000-fold with TTBS.
(§26) (2) The primary antibody solution was removed and the membrane was washed three times on the shaker in TTBS for five to ten minutes each.
(§27) (3) TTBS was removed and the solution of secondary antibody was added and left for 1 hour on the shaker.
(§28) (1) 2 ml each of Detection Reagent 1 and Detection Reagent 2 from ECL kit were mixed together on ice.
(§29) (2) The solution of secondary antibody was removed from the membrane reacted with the secondary antibody and then washed three times on the shaker in TTBS for five minutes each.
(§30) (3) The liquid was thoroughly removed from the membrane, which was then placed in a plastic bag, and 2 ml of the Detection Reagent mixture was added per each membrane.
(§31) (4) The membrane was kept in contact with a film in the cassette for one to five minutes, and the film was developed using an automatic developing machine.

[3] = target: T2, human GPR40 (hGPR40) (Homo sapiens, UniProt O14842); assay: ERK assay, screening for GPR40 ligands in cell line TXGPR40; settings: TXGPR40 cells; for ERK/GPR40 10 μM: ligand 10 μM; for ERK/GPR40 10 μM / ERK/GPR40 100 μM: class relative to LA; for ERK/GPR40 100 μM: ligand 100 μM; for ERK activation for GPR40 (in words): FIGS. 1-4
T2 construct: expressed in transfected cells; doxycycline-inducible expression vector
T2 sequence (O14842 whole entry): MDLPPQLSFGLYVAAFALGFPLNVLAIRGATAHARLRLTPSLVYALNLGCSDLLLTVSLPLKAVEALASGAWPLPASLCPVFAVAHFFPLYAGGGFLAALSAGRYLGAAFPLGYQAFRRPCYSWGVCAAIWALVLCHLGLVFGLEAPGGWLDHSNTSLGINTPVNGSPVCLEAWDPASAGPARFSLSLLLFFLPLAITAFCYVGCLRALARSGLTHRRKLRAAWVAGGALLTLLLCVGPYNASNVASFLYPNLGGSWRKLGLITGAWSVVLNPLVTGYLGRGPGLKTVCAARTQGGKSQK
Method: as §8, §9, §10, §11, §12, §13, §14, §15, §16, §17, §18, §19, §20, §21, §22, §23, §24, §25, §26, §27, §28, §29, §30, §31

[4] = target: T2, human GPR40 (hGPR40); assay: Determination of intracellular Ca2+ concentration (FLIPR), cell line TXGPR40; settings: for agonistic activity for GPR40 (in words): cells in which GPR40 has been transgenically expressed; for [Ca^2+]/GPR40 10 μM (ratio vs. LA): relative fluorescence intensity vs LA at 10 μM
Method: as §1, §2, §3, §4, §5, §6, §7

[5] = target: T1, human GPR120 (hGPR120); assay: Determination of intracellular Ca2+ concentration (FLIPR), cell line TXGPR120; settings: for agonistic activity for hGPR120 (in words): cells in which GPR120 has been transgenically expressed; for [Ca^2+]/GPR120 10 μM (ratio vs. LA): relative fluorescence intensity vs LA at 10 μM
Method: as §1, §2, §3, §4, §5, §6, §7

[6] = GPR120/Flp-in cells, maximum fluorescence intensity vs ligand concentration, read-out: [Ca^2+]/GPR120/Flp-In pEC50 (converted)

SMILES | EC50 [1] | [Ca^2+]/GPR120/Flp-In 10 μM (ratio vs. LA) ([1]; GPR120/Flp-in cells) | ERK activation for GPR120 (in words) [2] | ERK/GPR120 10 μM [2] | ERK/GPR120 100 μM [2] | ERK/GPR40 10 μM [3] | ERK/GPR40 100 μM [3] | EC50 [4] | agonistic activity for GPR40 (in words) [4] | [Ca^2+]/GPR40 10 μM (ratio vs. LA) ([4]; TXGPR40 cells) | EC50 [5] | agonistic activity for hGPR120 (in words) [5] | [Ca^2+]/GPR120 10 μM (ratio vs. LA) ([5]; TXGPR120 cells) | ERK activation for GPR40 (in words) [3] | EC50 [1, 6] | EC50 ([4]; TXGPR40 cells, maximum fluorescence intensity vs ligand concentration, read-out: [Ca^2+]/GPR40 pEC50 (converted)) | selectivity for GPR120 in ERK assay (in words) ([2]; GPR120 versus GPR40) | selectivity between GPR40 and GPR120 (in words), from Tables 3 and 4 ([5]; GPR40 versus GPR120, Ca2+ and ERK results) | EC50 ([5]; TXGPR120 cells, maximum fluorescence intensity vs ligand concentration, read-out: [Ca^2+]/GPR120 pEC50 (converted))
Cc1ccnc(N(CCOc2ccc(CCCC(=O)O)cc2)c2ccccc2)c1 [NCG34] | 6.92 µM | 0.81 | strongly activate ERK | +++ (+++ denotes a higher value than LA) | +++ (+++ denotes a higher value than LA) | + (+ denotes 0 to 100% of LA) | +++ (+++ denotes a higher value than LA) | 22.4 µM | showed a specific reactivity | 0.43 | 28.8 µM | exhibit a similar effect | 0.49 |  |  |  |  |  | 
O=C(O)CCCc1ccc(OCCN(c2ccccc2)c2nc3ccccc3s2)cc1 [NCG31] | 6.92 µM | 0.73 | strongly activate ERK | +++ (+++ denotes a higher value than LA) | +++ (+++ denotes a higher value than LA) | +++ (+++ denotes a higher value than LA) | +++ (+++ denotes a higher value than LA) | 19.1 µM | showed a specific reactivity | 0.32 | 17 µM | exhibit a similar effect | 0.61 | strongly activated ERK |  |  |  |  | 
CCCCN(CCOc1ccc(CCC(=O)O)cc1)c1ccccn1 [NCP04] |  | 0.33 |  | + (+ denotes 0 to 100% of LA) | +++ (+++ denotes a higher value than LA) | +++ (+++ denotes a higher value than LA) | +++ (+++ denotes a higher value than LA) |  | showed a specific reactivity | 2.15 |  | exhibit a similar effect | 0.00 |  | 18.2 µM | 2.57 µM |  |  | 
O=C(O)CCCc1ccc(OCCN(c2ccccc2)c2ccccc2)cc1 [NCG29] | 4.27 µM | 0.88 | strongly activate ERK | +++ (+++ denotes a higher value than LA) | +++ (+++ denotes a higher value than LA) | ++ (++ denotes 50 to 100% of LA) | +++ (+++ denotes a higher value than LA) | 20.9 µM | showed a specific reactivity | 0.21 | 12 µM | exhibit a similar effect | 0.85 | strongly activated ERK |  |  |  |  | 
O=C(O)CCCc1ccc(OCCN(c2ccccc2)c2cccnc2)cc1 [NCG30] |  | 0.88 | strongly activate ERK | ++ (++ denotes 50 to 100% of LA) | +++ (+++ denotes a higher value than LA) |  | + (+ denotes 0 to 100% of LA) |  |  | 0.01 |  | exhibit a similar effect | 0.71 | strongly activated ERK | 3.72 µM |  | selective for GRP120 | acting relatively mildly for GPR40 but acting strongly for GPR120 | 15.5 µM
